Experimental findings from ChEMBL document CHEMBL4177599, “The antitubercular activity of various nitro(triazole/imidazole)-based compounds” (Bioorg Med Chem, 2017) are described below.

SMILES strings stand for the structures. ≈ marks a conversion by molar mass, not a printed value.

Common to all, as to format: functional, organism-based
The subject of assay [1] is Mycobacterium tuberculosis. The experiment in a line: Antitubercular activity against isoniazid-resistant Mycobacterium tuberculosis INH-R2 ATCC 35822 after 5 days. Conditions: INH-R2 ATCC 35822, 120 h.
For assay [2], the system named is Mycobacterium tuberculosis. The experiment in a line: Antitubercular activity against isoniazid-resistant Mycobacterium tuberculosis H37Rv INH-R1 harboring katG Y155 mutant after 5 days.
Assay [3] relates to Mycobacterium tuberculosis. Briefly: Antitubercular activity against fluoroquinolone-resistant Mycobacterium tuberculosis H37Rv harboring gyrB D94N mutant after 5 days.
Assay [4] relates to Mycobacterium tuberculosis. Briefly: Antitubercular activity against rifampicin-resistant Mycobacterium tuberculosis H37Rv RIF-R2 ATCC 35828 after 5 days. As to conditions: H37Rv RIF-R2 ATCC 35828, 120 h.
Assay [5] has as its system Mycobacterium tuberculosis. The experiment in a line: Antitubercular activity against rifampicin-resistant Mycobacterium tuberculosis H37Rv RIF-R1 harboring rpoB S522L mutant after 5 days.

For orientation: IC50 means the midpoint of a concentration-inhibition curve. The term IC90 denotes the concentration at which the effect reaches the 90% level. Usually MIC stands for the least concentration at which growth counts as inhibited. High values mean a need for much substance, low ones inhibition by little substance.

Regarding `O=C(Cn1cnc([N+](=O)[O-])n1)Nc1nc(-c2ccc(F)c(F)c2)cs1`, the half-maximal inhibitory concentration (IC50) was found to be 31 µM in assay [1]; 32 µM in assay [2]; 31 µM in assay [3]; 30 µM in assay [4]; 25 µM in assay [5]. The IC90 in assay [1] came to 45 µM; in assay [2], 47 µM; in assay [3] it was 44 µM; in assay [4], 38 µM; in assay [5] it was 40 µM. The MIC in assay [1] was found to be 49 µM (≈ 17.9 µg/mL); in assay [2], 50 µM (≈ 18.3 µg/mL); in assay [3] it was 48 µM (≈ 17.6 µg/mL); in assay [4], 45 µM (≈ 16.5 µg/mL); in assay [5], 39 µM (≈ 14.3 µg/mL).
Consider `O=C(Cn1cnc([N+](=O)[O-])n1)Nc1ccc(N2CCCCC2)cc1`, for which the IC50 in assay [1] was found to be 30 µM; in assay [2] it was 34 µM; in assay [3], 32 µM; in assay [4], 36 µM; in assay [5] it was 25 µM. Also, the IC90 in assay [1] worked out at 44 µM; in assay [2], 53 µM; in assay [3], 47 µM; in assay [4], 49 µM; in assay [5], 41 µM. Further, the MIC in assay [1] is 48 µM (≈ 15.9 µg/mL); in assay [2], 54 µM (≈ 17.8 µg/mL); in assay [3], 50 µM (≈ 16.5 µg/mL); in assay [4] it was 51 µM (≈ 16.8 µg/mL); in assay [5] it was 36 µM (≈ 11.9 µg/mL).
As for `O=C(Cn1cnc([N+](=O)[O-])n1)Nc1ccc(Oc2ccccc2)cc1`, the IC50 in assay [1] was 66 µM; in assay [2], 73 µM; in assay [3], 70 µM; in assay [4] it was 55 µM; in assay [5] it was 70 µM. Besides, the concentration for an effect of 90% (IC90) in assay [1] worked out at 110 µM; in assay [2] it was 130 µM; in assay [3], 130 µM; in assay [4], 170 µM; in assay [5], 150 µM. Also, the MIC in assay [1] was over 200 µM; in assay [2], 125 µM (≈ 42.4 µg/mL); in assay [3] it was 200 µM (≈ 67.9 µg/mL); in assay [4] it was 116 µM (≈ 39.4 µg/mL); in assay [5], 133 µM (≈ 45.1 µg/mL).
As for `O=C(Cn1cnc([N+](=O)[O-])n1)Nc1ccc(Oc2ccc(Cl)cc2)cc1`, the IC50 in assay [1] turned out to be 36 µM; in assay [2] it was 54 µM; in assay [3] it was 56 µM; in assay [4] it was 55 µM; in assay [5] it was 58 µM. The IC90 was 54 µM in assay [1]; 76 µM in assay [2]; 84 µM in assay [3]; 150 µM in assay [4]; 91 µM in assay [5]. Further, the MIC in assay [1] is 55 µM (≈ 20.6 µg/mL); in assay [2], 91 µM (≈ 34 µg/mL); in assay [3] it was 94 µM (≈ 35.1 µg/mL); in assay [4], 100 µM (≈ 37.4 µg/mL); in assay [5], 98 µM (≈ 36.6 µg/mL).
Consider `O=C(Cn1cnc([N+](=O)[O-])n1)Nc1cccc(-c2ccccc2)c1`, for which the IC50 worked out at 26 µM in assay [1]; 31 µM in assay [2]; 29 µM in assay [3]; 29 µM in assay [4]; 24 µM in assay [5]. Moreover, the 90% effect concentration (IC90) came out at 31 µM in assay [1]; 43 µM in assay [2]; 39 µM in assay [3]; 33 µM in assay [4]; 40 µM in assay [5]. The MIC in assay [1] worked out at 28 µM (≈ 9.05 µg/mL); in assay [2], 48 µM (≈ 15.5 µg/mL); in assay [3] it was 28 µM (≈ 9.05 µg/mL); in assay [4] it was 33 µM (≈ 10.7 µg/mL); in assay [5], 35 µM (≈ 11.3 µg/mL).
As for `O=C(Cn1cnc([N+](=O)[O-])n1)Nc1ccc(Cc2ccccc2)cc1`, the concentration for half-maximal inhibition (IC50) worked out at 29 µM in assay [1]; 33 µM in assay [2]; 28 µM in assay [3]; 34 µM in assay [4]; 27 µM in assay [5]. Besides, the IC90 in assay [1] was found to be 37 µM; in assay [2], 47 µM; in assay [3], 32 µM; in assay [4], 44 µM; in assay [5], 40 µM. Besides, the minimum inhibitory concentration (MIC) in assay [1] turned out to be 31 µM (≈ 10.5 µg/mL); in assay [2], 50 µM (≈ 16.9 µg/mL); in assay [3], 30 µM (≈ 10.1 µg/mL); in assay [4], 48 µM (≈ 16.2 µg/mL); in assay [5] it was 44 µM (≈ 14.8 µg/mL).
With `O=C(Cn1ccnc1[N+](=O)[O-])Nc1ccc(Oc2ccccc2)cc1`, the 50% inhibitory concentration (IC50) was found to be 80 µM in assay [1]; 75 µM in assay [2]; 74 µM in assay [3]; 110 µM in assay [4]; 84 µM in assay [5]. Further, the 90% effect concentration (IC90) was over 200 µM in assay [1]; 140 µM in assay [2]; over 200 µM in assay [3]; over 200 µM in assay [4]; over 200 µM in assay [5]. For the same molecule, the minimum inhibitory concentration (MIC) in assay [1], in assay [2], in assay [3], in assay [4] and in assay [5] was over 200 µM throughout.
For `O=C(Cn1ccnc1[N+](=O)[O-])Nc1ccc(Oc2ccc(Cl)cc2)cc1`, the IC50 is over 100 µM in assay [1]; over 100 µM in assay [2]; over 100 µM in assay [3]; 56 µM in assay [4]; 48 µM in assay [5]. Moreover, the IC90 in assay [1], in assay [2], in assay [3], in assay [4] and in assay [5] was over 100 µM throughout. In addition, the minimal inhibitory concentration (MIC) in assay [1], in assay [2], in assay [3], in assay [4] and in assay [5] was over 200 µM each time.
Take `O=C(Cn1ccnc1[N+](=O)[O-])Nc1ccc(Oc2ccc(F)cc2)cc1`: the IC50 in assay [1] was 70 µM; in assay [2], 65 µM; in assay [3], 75 µM; in assay [4] it was 78 µM; in assay [5] it was 46 µM. Besides, the IC90 is over 100 µM in assay [1]; over 100 µM in assay [2]; 190 µM in assay [3]; over 200 µM in assay [4]; over 100 µM in assay [5]. Further, the MIC in assay [1] was over 200 µM; in assay [2] it was over 200 µM; in assay [3] it was 200 µM (≈ 71.3 µg/mL); in assay [4], over 200 µM; in assay [5], over 200 µM.
For the molecule `O=C(Cn1cnc([N+](=O)[O-])n1)N1CCN(Cc2ccc(C(F)(F)F)cc2)CC1`, the IC50 turned out to be 26 µM in assay [1]; 32 µM in assay [2]; 27 µM in assay [3]; 32 µM in assay [4]; 21 µM in assay [5]. For the same molecule, the 90% effect concentration (IC90) amounted to 32 µM in assay [1]; 44 µM in assay [2]; 31 µM in assay [3]; 41 µM in assay [4]; 32 µM in assay [5]. The MIC in assay [1] was found to be 28 µM (≈ 11.2 µg/mL); in assay [2], 48 µM (≈ 19.1 µg/mL); in assay [3] it was 28 µM (≈ 11.2 µg/mL); in assay [4] it was 45 µM (≈ 17.9 µg/mL); in assay [5], 31 µM (≈ 12.3 µg/mL).
On to `O=C(CCn1cnc([N+](=O)[O-])n1)Nc1cccc(OCc2ccccc2)c1`, for which the IC50 in assay [1] was 3.2 µM; in assay [2] it was 4.5 µM; in assay [3] it was 3.4 µM; in assay [4] it was 4.1 µM; in assay [5], 2.2 µM. The concentration for an effect of 90% (IC90) stood at 5.6 µM in assay [1]; 5.9 µM in assay [2]; 6.2 µM in assay [3]; 5.2 µM in assay [4]; 3.7 µM in assay [5]. The MIC is 5.7 µM (≈ 2.09 µg/mL) in assay [1]; 6.2 µM (≈ 2.28 µg/mL) in assay [2]; 6 µM (≈ 2.2 µg/mL) in assay [3]; 5.6 µM (≈ 2.06 µg/mL) in assay [4]; 3.6 µM (≈ 1.32 µg/mL) in assay [5].
Take `O=C(CCn1cnc([N+](=O)[O-])n1)Nc1ccc(Oc2ccccc2)cc1`: the IC50 in assay [1] turned out to be 26 µM; in assay [2], 38 µM; in assay [3] it was 32 µM; in assay [4] it was 29 µM; in assay [5] it was 28 µM. The 90% effect concentration (IC90) in assay [1] was 53 µM; in assay [2], 71 µM; in assay [3], 68 µM; in assay [4], 40 µM; in assay [5], 42 µM. The minimal inhibitory concentration (MIC) in assay [1] worked out at 56 µM (≈ 19.8 µg/mL); in assay [2], 59 µM (≈ 20.8 µg/mL); in assay [3], 62 µM (≈ 21.9 µg/mL); in assay [4] it was 48 µM (≈ 17 µg/mL); in assay [5], 48 µM (≈ 17 µg/mL).
`O=C(CCn1cnc([N+](=O)[O-])n1)Nc1ccc(Oc2ccc(F)cc2)cc1`: the IC50 was determined as 19 µM in assay [1]; 29 µM in assay [2]; 26 µM in assay [3]; 21 µM in assay [4]; 16 µM in assay [5]. The IC90 in assay [1] was 37 µM; in assay [2], 65 µM; in assay [3] it was 48 µM; in assay [4], 53 µM; in assay [5], 23 µM. For the same molecule, the minimal inhibitory concentration (MIC) in assay [1] is 36 µM (≈ 13.4 µg/mL); in assay [2] it was 50 µM (≈ 18.6 µg/mL); in assay [3] it was 46 µM (≈ 17.1 µg/mL); in assay [4], 58 µM (≈ 21.5 µg/mL); in assay [5], 25 µM (≈ 9.28 µg/mL).
Turning to `O=C(CCn1cnc([N+](=O)[O-])n1)Nc1cccc(-c2ccccc2)c1`, the IC50 in assay [1] was 6.2 µM; in assay [2], 8.5 µM; in assay [3] it was 6.8 µM; in assay [4], 8.1 µM; in assay [5] it was 4.1 µM. Further, the IC90 in assay [1] amounted to 11 µM; in assay [2] it was 15 µM; in assay [3] it was 14 µM; in assay [4], 11 µM; in assay [5], 8 µM. Also, the MIC was 10 µM (≈ 3.37 µg/mL) in assay [1]; 15 µM (≈ 5.06 µg/mL) in assay [2]; 13 µM (≈ 4.39 µg/mL) in assay [3]; 12 µM (≈ 4.05 µg/mL) in assay [4]; 7.7 µM (≈ 2.6 µg/mL) in assay [5].
`O=C(CCn1cnc([N+](=O)[O-])n1)Nc1ccc(Oc2ccc(Cl)cc2)cc1`: the IC50 in assay [1] came out at 18 µM; in assay [2] it was 25 µM; in assay [3], 24 µM; in assay [4] it was 17 µM; in assay [5], 15 µM. The 90% effect concentration (IC90) in assay [1] was determined as 32 µM; in assay [2], 53 µM; in assay [3], 42 µM; in assay [4], 30 µM; in assay [5], 22 µM. Moreover, the minimum inhibitory concentration (MIC) in assay [1] is 31 µM (≈ 12 µg/mL); in assay [2] it was 46 µM (≈ 17.8 µg/mL); in assay [3] it was 40 µM (≈ 15.5 µg/mL); in assay [4], 29 µM (≈ 11.2 µg/mL); in assay [5], 24 µM (≈ 9.31 µg/mL).
